Results from patent US20260374754A1, “N-((ISOQUINOLIN-6-YL)METHYL)-1H-PYRAZOLE-4-CARBOXAMIDE DERIVATIVES AS PLASMA KALLIKREIN INHIBITORS FOR THE TREATMENT OF HEREDITARY ANGIODEMA” (Takeda Pharmaceutical Company Limited, priority 2022, published 2026).
pEC50: −log10 of the molar value.

The compounds below were run against human activated kallikrein enzyme (Homo sapiens, UniProt P03952) (assay: Inhibition of human activated plasma kallikrein, fluorogenic PFR-AMC substrate, 500 pM enzyme format). Details: 500 pM activated kallikrein; 300 μM PFR-AMC; 30 min preincubation; 10 min room temperature; pH 7.5; read-out: Primary Dose Response Assay: Average EC50.
Chain of human activated kallikrein enzyme (P03952 391-638 limits assumed): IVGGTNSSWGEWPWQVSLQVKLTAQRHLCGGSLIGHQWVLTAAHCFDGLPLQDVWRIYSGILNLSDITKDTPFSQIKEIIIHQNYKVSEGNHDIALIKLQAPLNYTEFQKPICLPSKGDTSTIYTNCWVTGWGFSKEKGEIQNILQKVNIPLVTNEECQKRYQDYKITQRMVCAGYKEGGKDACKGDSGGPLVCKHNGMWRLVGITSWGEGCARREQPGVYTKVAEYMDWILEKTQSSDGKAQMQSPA
Chain of human activated kallikrein enzyme (P03952 20-390 partner limits assumed): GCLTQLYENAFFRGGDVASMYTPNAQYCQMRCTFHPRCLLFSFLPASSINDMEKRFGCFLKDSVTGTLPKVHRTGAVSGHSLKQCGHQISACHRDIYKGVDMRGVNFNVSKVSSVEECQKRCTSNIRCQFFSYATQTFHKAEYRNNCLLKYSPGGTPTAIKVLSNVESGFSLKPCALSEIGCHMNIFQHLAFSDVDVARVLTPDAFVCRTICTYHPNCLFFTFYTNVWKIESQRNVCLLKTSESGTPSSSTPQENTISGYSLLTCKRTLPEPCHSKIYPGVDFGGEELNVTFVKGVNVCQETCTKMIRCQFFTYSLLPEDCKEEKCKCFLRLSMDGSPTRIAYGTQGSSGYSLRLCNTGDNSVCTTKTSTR
Format: biochemical
Method in brief: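 500 pM activated kallikrein preincubated 30 min at room temperature with inhibitors in pH 7.5 Tris/EDTA/NaCl buffer with PEG-400 and Triton X-100. Reaction started with 300 μM PFR-AMC, run 10 min at room temperature; AMC fluorescence read at ex 380/em 460 nm.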
`Cc1cc2c(N)nccc2c(C)c1CNc1cc(NCc2ccc(Cc3ccc(Cl)cn3)cc2)ncn1` [Example 369, N^4-((1-amino-5,7-dimethylisoquinolin-6-yl)methyl)-N^6(4-((5-chloropyridin-2-yl)methyl)benzyl)pyrimidine-4,6-diamine] gave a pEC50 of 8.00 to 9.00.
With `CNc1nccc2c(C)c(CNC(=O)c3cnn(Cc4cn5cc(C6CC6)ccc5n4)c3)c(C)cc12` [Example 134, 1-((6-cyclopropylimidazo[1,2-a]pyridin-2-yl)methyl)-N-((5,7-dimethyl-1-(methylamino)isoquinolin-6-yl)methyl)-1H-pyrazole-4-carboxamide] the pEC50 was over 9.00.
With `Cc1cc2c(N)nccc2c(C)c1CNc1cnnc(NCc2ccc(Cn3ccccc3=O)cc2)c1` [Example 537, 1-(4-(((5-(((1-amino-5,7-dimethylisoquinolin-6-yl)methyl)amino)pyridazin-3-yl)amino)methyl)benzyl)pyridin-2(1H)-one] the pEC50 was over 9.00.
`Cc1cc2c(N)nccc2c(C)c1CNc1cc(NCc2ccc(CC(=O)N3CC4CC4C3)cc2)ncn1` (centres unmarked) [Example 378, 2-(4-(((6-(((1-amino-5,7-dimethylisoquinolin-6-yl)methyl)amino)pyrimidin-4-yl)amino)methyl)phenyl)-1-(3-azabicyclo[3.1.0]hexan-3-yl)ethan-1-one] gave a pEC50 of over 9.00.
With `Cc1cc2c(N)nccc2c(C)c1CNC(=O)c1ccnc(Cc2ccc(Cn3cccn3)cc2)c1` [Example 183] the pEC50 was over 9.00.
`Cc1cc2c(N)nccc2c(C)c1CNc1cc(OCc2cn3cc(C4CC4)cnc3n2)nc(CCC(=O)O)n1` [Example 294, 3-(4-(((1-amino-5,7-dimethylisoquinolin-6-yl)methyl)amino)-6-((6-cyclopropylimidazo[1,2-a]pyrimidin-2-yl)methoxy)pyrimidin-2-yl)propanoic acid] showed a pEC50 of over 9.00.
In the case of `Cc1cc(CNc2cc(NCc3c(C)cc4c(N)nccc4c3C)ncn2)cc(C)c1CC(=O)N(C)C` [Compound 360], the pEC50 was over 9.00.
With `Cc1cc2c(N)nccc2c(C)c1CNC(=O)c1cnn(Cc2ccc(Cc3nccs3)cc2)c1` [Example 166, N-((1-amino-5,7-dimethylisoquinolin-6-yl)methyl)-1-(4-(thiazol-2-ylmethyl)benzyl)-1H-pyrazole-4-carboxamide] the pEC50 was over 9.00.
`Cc1cc2c(N)nccc2c(C)c1CNC(=O)c1cnn(Cc2ccccc2)c1` [Example 160, N-((1-amino-5,7-dimethylisoquinolin-6-yl)methyl)-1-benzyl-1H-pyrazole-4-carboxamide] gave a pEC50 of 6.00 to 7.00.
`Cc1cc2c(N)nccc2c(C)c1CNC(=O)c1cnn(Cc2ccc3ncccc3n2)c1` [Example 150, 1-((1,5-naphthyridin-2-yl)methyl)-N-((1-amino-5,7-dimethylisoquinolin-6-yl)methyl)-1H-pyrazole-4-carboxamide] showed a pEC50 of 7.00 to 8.00.
Compound `Cc1cc2c(N)nccc2c(C)c1CNc1cnnc(OCc2ccc(Cn3cccn3)cc2)c1` [Example 530, 6-(((6-((4-((1H-pyrazol-1-yl)methyl)benzyl)oxy)pyridazin-4-yl)amino)methyl)-5,7-dimethylisoquinolin-1-amine] has a pEC50 of 7.00 to 8.00.
`Cc1cc2c(N)nccc2c(C)c1CNc1cc2nn(Cc3cn4cc(C5CC5)ccc4n3)cc2cn1` [Example 269, 6-(((2-((6-cyclopropylimidazo[1,2-a]pyridin-2-yl)methyl)-2H-pyrazolo[4,3-c]pyridin-6-yl)amino)methyl)-5,7-dimethylisoquinolin-1-amine] gave a pEC50 of 7.00 to 8.00.
With `Cc1cc2c(N)nccc2c(C)c1CNC(=O)c1cnn(Cc2ccc(Cc3ncccn3)cc2)c1` [Example 168, N-((1-amino-5,7-dimethylisoquinolin-6-yl)methyl)-1-(4-(pyrimidin-2-ylmethyl)benzyl)-1H-pyrazole-4-carboxamide] the pEC50 was 8.00 to 9.00.
For `Cc1cc2c(N)nccc2c(C)c1CNc1cc(NCc2ccc3ncc(C(F)(F)F)cc3c2)ncn1` [Example 312, N^4-((1-amino-5,7-dimethylisoquinolin-6-yl)methyl)-N^6-((3-(trifluoromethyl)quinolin-6-yl)methyl)pyrimidine-4,6-diamine], the pEC50 was over 9.00.
